We go through ten molecules from patent US20130252890A1, “6,7-DIHYDRO-5H-BENZO[7]ANNULENE DERIVATIVES, PROCESS FOR PREPARATION THEREOF, PHARMACEUTICAL PREPARATIONS COMPRISING THEM, AND THE USE THEREOF FOR PRODUCTION OF MEDICAMENTS” (BAYER INTELLECTUAL PROPERTY GMBH, priority 2010, published 2013).

Where a name gives a salt, the structure may show the parent alone.

One data set addresses T1, oestrogen receptor (ER) (Homo sapiens, UniProt P03372).
T1 construct: These MVLN cells express, along with the functional oestrogen receptor (ER), a reporter construct; endogenous in cells; host or cells: MVLN cells (MCF7 derivative carrying a luciferase reporter construct)
T1 sequence (P03372 1-595): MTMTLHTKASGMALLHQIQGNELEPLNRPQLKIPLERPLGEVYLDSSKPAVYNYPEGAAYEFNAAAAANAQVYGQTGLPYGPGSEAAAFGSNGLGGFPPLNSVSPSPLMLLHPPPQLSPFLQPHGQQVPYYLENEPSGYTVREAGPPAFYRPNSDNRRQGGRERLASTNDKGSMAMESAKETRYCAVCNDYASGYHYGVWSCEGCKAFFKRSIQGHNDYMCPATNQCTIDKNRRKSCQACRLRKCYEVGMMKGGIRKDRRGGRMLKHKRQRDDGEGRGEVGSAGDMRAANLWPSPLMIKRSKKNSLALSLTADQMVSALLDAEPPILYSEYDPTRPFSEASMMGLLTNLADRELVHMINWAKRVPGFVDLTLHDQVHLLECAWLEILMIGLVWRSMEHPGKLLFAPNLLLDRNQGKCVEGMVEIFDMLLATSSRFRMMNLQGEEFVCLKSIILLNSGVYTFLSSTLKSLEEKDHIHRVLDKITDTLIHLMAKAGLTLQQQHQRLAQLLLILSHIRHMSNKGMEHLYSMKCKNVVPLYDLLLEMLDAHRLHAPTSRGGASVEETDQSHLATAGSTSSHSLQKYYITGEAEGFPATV
The experiment in a line: Anti-oestrogenic action in MVLN cells (inhibition of estradiol-induced luciferase). The data set is classed as cell-based. As to conditions: inhibition of estradiol-induced luciferase signal, value of Ex. 44 is a mean value, read-out: Antioestrogenic action in vitro: MVLN transactivation antagonism IC50. Put shortly: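 MVLN cells, MCF7 breast cancer derivatives carrying functional ER plus an ER-activated luciferase reporter, were treated with compounds in the presence of estradiol. Anti-oestrogenic activity taken as inhibition of the estradiol-induced luciferase signal.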

The subject of data set [1] is uterus. The experiment in a line: Oestrogenic action - uterus growth test in the infantile rat. The data set is classed as in vivo. Conditions: sc, 72 h, s.c. 3 days, relative to E2 0.3 μg/animal, read-out: maximum uterotropic action (% estradiol action) in the dose range from 0.03 to 3 mg/kg; for Emax at 0.03 mg/kg: maximum at dose 0.03 mg/kg; for Emax at 0.3 mg/kg: maximum at dose 0.3 mg/kg. As to the method: Both the uterus and the vagina show a weight increase that is dependent on oestrogenic efficacy, in infantile animals when they are treated with a substance with oestrogenic action. In the uterus, under oestrogenic action there is also proliferation and increase in height of the luminal epithelium.
Immature, intact rats (n=5-6 animals/group; body weight 40-50 g) receive the substance s.c. for 3 days (d1-d3). On day 4 (d4) the animals are killed with CO2. The uteri are removed and weighed. For histological assessment, a piece of uterus, preferably a uterine horn, is fixed in formaldehyde and embedded in paraffin. The stimulation of the organ weights (relative to mg/100 g body weight) and the height of the epithelium are shown as percentage stimulation in comparison with the reference compound 17β-estradiol (E2). (Substitution dose of E2 0.3 μg/animal).

Data set [2] concerns uterus. The experiment in a line: Anti-uterus growth test in the adult rat. As to conditions: sc, 72 h; ovariectomized adult rat, s.c. 3 days with 1.5 μg/kg/day 17β-estradiol; inhibition of uterus growth; value of 44 is a mean of two measurements; read-out: anti-oestrogenic activity in vivo in % at a dose of 0.3 mg/kg (rat). The source says:
The uterus of oestrogen-substituted rats can be used as a test model for detecting a direct action of substances with anti-oestrogenic properties. The parameter of oestrogenic action is estradiol-induced uterus growth in rats, which is inhibited by simultaneous administration of a substance with anti-oestrogenic action. The experimental animals (n=5-6 animals/group) were ovariectomized before the start of the test, to rule out the influence of endogenous oestrogens. After a phase of 6 to 10 days, the test substances are administered s.c. on 3 consecutive days (d1-d3) in combination with a substitution dose of 1.5 μg/kg/day 17β-estradiol. 17β-estradiol alone serves as positive control, and the excipients serve as negative control. On day 4 (d4) the animals are killed, and the uteri and vaginae are removed and weighed. The organ weights are converted to mg/100 g body weight, then the mean value and the standard deviation are calculated for each dosage. The inhibition of uterus growth induced by 17β-estradiol is shown as percentage inhibition.

The test system of data set [3] is ovarian estradiol synthesis. The experiment in a line: Stimulation of ovarian oestrogen synthesis (HPG axis) in intact adult rats. Conditions: hormonally intact adult rats, daily for 10 days; quotient of peripheral estradiol values after and before treatment. The data set is classed as in vivo, rat. The source says: The clinical use both of pure anti-oestrogens and of various SERMs for the treatment of premenopausal women is limited by their property of stimulating the ovaries through activation of the hypothalamic-pituitary-gonadal axis (HPG axis), which leads to the increase in peripheral estradiol levels (Palomba, S., Orio, F., Jr., Morelli, M., Russo, T., Pellicano, M., Zupi, E., Lombardi, G., Nappi, C., Panici, P. L., and Zullo, F. (2002). Raloxifene administration in premenopausal women with uterine leiomyomas: a pilot study. J Clin Endocrinol Metab 87, 3603-3608). This stimulation of the HPG axis is associated with penetration of the blood-brain barrier and penetration of the brain. To investigate the ovary-stimulating properties of the claimed pharmacological compounds, hormonally intact adult rats were treated with the substances daily for a period of 10 days. The study end point is the quotient of peripheral estradiol values after and before treatment.

Another data set concerns endometriosis lesions. The experiment in a line: Endometriosis model in the rat (autologous transplantation). Conditions: rat. The data set is classed as in vivo. The source says:
Using intact adult female rats, experimental endometriosis was induced in the autologous transplantation model based on Vernon M. W. and Wilson E. A., 1985 (Fertil Steril. 44(5):684-694). A uterine horn was removed from animals that were exclusively in oestrus, the myometrium was separated from the endometrium and biopsies with dimensions of 4×4 mm were obtained from the endometrial tissue. Two uterine fragments were transplanted onto the inside of the abdominal wall (peritoneum) and two uterine fragments were transplanted onto the mesenterium of the same animal (4 fragments per animal). After 21 days the animals with endometriosis were laparotomized, and the size of the transplants was determined. The animals were treated after laparotomy and then daily in the morning with the stated dosages of the selected claimed substances by subcutaneous administration. Finally, 28 days after the start of treatment (49 days after transplantation), all the animals were laparotomized again and the size of the lesion was measured and was correlated with the size before the start of treatment.

Data set [4] has as its system peripheral cholesterol level. The experiment in a line: Hepatic oestrogenicity in the ovariectomized adult rat (plasma cholesterol). The data set is classed as in vivo. As to conditions: ovariectomized adult rats, s.c. daily for 6 days; cholesterol day 0 vs day 8. The source says:
Substances with oestrogenic action influence the synthesis of various plasma proteins, of coagulation factors and fibrinolytic factors in the liver. […] In the present investigations, lowering of the peripheral cholesterol level is used as a surrogate parameter for analysis of the hepatic oestrogenicity of the claimed pharmacological compounds. Adult ovariectomized rats were, after a pause of 6-10 days, treated daily for 6 days with the substances by subcutaneous application. The plasma cholesterol levels were determined and compared before and after the respective treatment.

A word on the IC50: it is the point on the concentration scale where inhibition reaches its midpoint. For `CN(CCCCCCC1=C(c2ccc(F)cc2)CCCc2cc(O)ccc21)CCCCS(=O)(=O)CCC(F)(F)F` [Example 51, 8-(4-Fluorophenyl)-9-[6-(methyl{4-[(3,3,3-trifluoropropyl)sulphonyl]butyl}amino)hexyl]-6,7-dihydro-5H-benzo[7]annulen-3-ol], on oestrogen receptor (ER), the IC50 was determined as 30 nM. Moreover, in the data set on uterus [1] (maximum at dose 0.1 mg/kg), the Emax at 0.1 mg/kg is 22%. In addition, in the data set with uterus [2], the inhibition in vivo at 0.3 mg/kg worked out at 59%.
`CN(CCCCCCC1=C(c2ccc(F)cc2)CCCc2cc(O)ccc21)CCCS(=O)(=O)CCCCC(F)(F)F` [Example 80, 8-(4-Fluorophenyl)-9-[6-(methyl{3-[(5,5,5-trifluoropentyl)sulphonyl]propyl}amino)hexyl]-6,7-dihydro-5H-benzo[7]annulen-3-ol]: the IC50 at oestrogen receptor (ER) worked out at 8 nM. In the data set on uterus [2], the inhibition in vivo at 0.3 mg/kg came out at 59%. Also, in data set [3], the “Stimulation of ovarian oestrogen synthesis: factor at a dose of 3 mg/kg rat” value (“Stimulation” for short) is listed as 2.3.
Regarding `CN(CCCCCCC1=C(c2ccc(F)cc2)CCCc2cc(O)ccc21)CCCCS(=O)(=O)CCCC(F)(F)C(F)(F)F` [Example 114, 8-(4-fluorophenyl)-9-[6-(methyl{4-[(4,4,5,5,5-pentafluoropentyl)sulphonyl]butyl}amino)hexyl]-6,7-dihydro-5H-benzo[7]annulen-3-ol], the IC50 on oestrogen receptor (ER) came to 10 nM. Moreover, the inhibition in vivo at 0.3 mg/kg with uterus [2] turned out to be 49%. Besides, the “Stimulation” value in data set [3] is 1.4.
For the molecule `CN(CCCCCCC1=C(c2ccc(F)cc2)CCCc2cc(O)ccc21)CCCS(=O)(=O)CCCC(F)(F)C(F)(F)F` [Example 115, 8-(4-fluorophenyl)-9-[6-(methyl{3-[(4,4,5,5,5-pentafluoropentyl)sulphonyl]propyl}amino)hexyl]-6,7-dihydro-5H-benzo[7]annulen-3-ol], in the data set on endometriosis lesions (28 days of treatment, 115 tested 0.1-1 mg/kg, 44 tested 0.3-10 mg/kg), the “dosage with significant reduction in sizes of lesions” value came to 1 mg/kg. The “reduction of lesion size” value with endometriosis lesions (s.c. daily, 4 weeks (FIG. 2A, FIG. 2B)) is given as “significant dose-dependent reduction of lesion size”. Further, on oestrogen receptor (ER), the IC50 is 13 nM. For the same molecule, in the data set with uterus [1], the Emax at 0.03 mg/kg came out at 3%. For the same molecule, the inhibition in vivo at 0.3 mg/kg in the data set on uterus [2] was 50%. In addition, the “hepatic oestrogenicity: lowering of the peripheral cholesterol level” value in data set [4] is given as “only observed at high dosage”. In addition, the “Stimulation” value in data set [3] was 2.7.
`CN(CCCCCCC1=C(c2ccc(F)cc2)CCCc2cc(O)ccc21)CCCS(=O)(=O)CCCC(F)(F)F` [Example 117, 8-(4-fluorophenyl)-9-[6-(methyl{3-[(4,4,4-trifluorobutyl)sulphonyl]propyl}amino)hexyl]-6,7-dihydro-5H-benzo[7]annulen-3-ol]: the concentration for half-maximal inhibition (IC50) on oestrogen receptor (ER) is 18 nM. In the data set with uterus [1], the Emax at 0.3 mg/kg came to 18%. Moreover, the inhibition in vivo at 0.3 mg/kg in the data set with uterus [2] worked out at 65%. In addition, the “Stimulation” value in data set [3] is on record as 2.1.
Take `CN(CCCCCCC1=C(c2ccc(F)cc2)CCCc2cc(O)ccc21)CCC[S+]([O-])CCCC(F)(F)C(F)(F)F` (stereo not shown) [Example 118, 8-(4-fluorophenyl)-9-[6-(methyl{3-[(4,4,5,5,5-pentafluoropentyl)sulphinyl]propyl}amino)hexyl]-6,7-dihydro-5H-benzo[7]annulen-3-ol]: the IC50 at oestrogen receptor (ER) stood at 9 nM. Besides, the Emax at 0.03 mg/kg in the data set on uterus [1] amounted to 8%. Besides, the inhibition in vivo at 0.3 mg/kg in the data set with uterus [2] worked out at 78%. For the same molecule, the “hepatic oestrogenicity: lowering of the peripheral cholesterol level” value in data set [4] was “only observed at high dosage”. Also, in data set [3], the “Stimulation” value is 2.3.
Regarding `CN(CCCCCCC1=C(c2ccc(F)cc2)CCCc2cc(O)ccc21)CCCCS(=O)(=O)C1CCC(F)(F)CC1` [Example 122, 9-{6-[{4-[(4,4-difluorocyclohexyl)sulphonyl]butyl}(methyl)amino]hexyl}-8-(4-fluorophenyl)-6,7-dihydro-5H-benzo[7]annulen-3-ol], at oestrogen receptor (ER), the IC50 was 6 nM. Besides, the Emax at 0.3 mg/kg in the data set on uterus [1] came to 7%. Moreover, in the data set on uterus [2], the inhibition in vivo at 0.3 mg/kg amounted to 52%. The “Stimulation” value in data set [3] came out at 2.4.
Consider `CN(CCCCCCC1=C(c2ccc(F)cc2)CCCc2cc(O)ccc21)CCCS(=O)(=O)CC1CCC(F)(F)CC1` [Example 123, 9-{6-[(3-{[(4,4-difluorocyclohexyl)methyl]sulphonyl}propyl)(methyl)amino]hexyl}-8-(4-fluorophenyl)-6,7-dihydro-5H-benzo[7]annulen-3-ol], for which, on oestrogen receptor (ER), the IC50 was found to be 13 nM. The Emax at 0.3 mg/kg in the data set with uterus [1] came to 8%. The inhibition in vivo at 0.3 mg/kg in the data set on uterus [2] came to 56%. Besides, in data set [3], the “Stimulation” value was 2.5.
Consider `CN(CCCCCCC1=C(c2cccc(F)c2)CCCc2cc(O)ccc21)CCCCS(=O)(=O)CCCC(F)(F)C(F)(F)F` [Example 124, 8-(3-fluorophenyl)-9-[6-(methyl{4-[(4,4,5,5,5-pentafluoropentyl)sulphonyl]butyl}amino)hexyl]-6,7-dihydro-5H-benzo[7]annulen-3-ol], for which, at oestrogen receptor (ER), the IC50 worked out at 13 nM. In addition, in the data set with uterus [2], the inhibition in vivo at 0.3 mg/kg amounted to 67%. The “Stimulation” value in data set [3] is reported as 2.0.
Regarding `O=C(c1ccc(OCCN2CCCCC2)cc1)c1c(-c2ccc(O)cc2)sc2cc(O)ccc12` [Raloxifene hydrochloride, Raloxifene, reference compound], the “Stimulation” value in data set [3] turned out to be 3.1.
